Reference: patent US20260241012A1, “1,8-NAPHTHYRIDIN-2-ONE HETEROBIFUNCTIONAL BCL6 DEGRADERS” (Treeline Biosciences, Inc., priority 2022, published 2026)

Target: T1, N-terminal HiBiT tagged BCL6 (Homo sapiens, UniProt P41182)
T1 construct: expressed in transfected cells; host or cells: HT1080 (ATCC CCL-121), stably transduced with lentivirus pLV-UBC-N-HiBiT-BCL6-PGK-puro
Test: HiBiT based degradation assay
Assay type: cell-based
Settings: HT1080 cells expressing N-terminal HiBiT tagged BCL6, 5 hours of incubation; for Ymin (5 hr): BCL6 degradation normalized with DMSO control; for DC50: four-parameter logistic model, read-out: EC50 (5 hr)
Excerpt: Human BCL6 protein coding open reading frame fused with N-terminal HiBiT coding sequence was synthesized from Integrated DNA Technologies (IDT). Next, the N-HiBiT-BCL6 sequence was cloned into pLV-UBC-PGK-Puro, a lentivirus plasmid purchased from Vectorbuilder, to generate pLV-UBC-N-HiBiT-BCL6-PGK-puro. Lentiviral particles were generated from Lenti-X™ 293T cells (Clontech) by co-transfection of pLV-UBC-N-HiBiT-BCL6-PGK-puro plasmids and lentiviral packaging plasmid mix (Cellecta). HT1080 [HT1080] (ATCC CCL-121) cells were infected with the lentivirus, and HT1080 cells stably integrated with the lentiviral vectors were established by incubation with 1 μg/mL puromycin (Thermofisher).
HT1080 cells expressing N-terminal HiBiT tagged BCL6 were dispensed into a 384-well plate pre-spotted with compounds at varying concentrations. Five thousand cells were seeded into each well in 40 μL of RPMI 1640 media plus 10% Fetal Bovine Serum (10082-147, Thermofisher). After 5 hours of incubation at 37° C. with 5% CO2, 30 μL of the NANO-GLOR HiBiT Lytic Detection System working solution (Promega) was added to each well and incubated at room temperature for 15 min. After incubation, luminescence was read on a PHERAstar FSX Plate Reader (BMG). BCL6 degradation at each indicated concentration was normalized with DMSO control. The BCL6 degradation curves were plotted using a four-parameter logistic model.

Compound	Ymin (5 hr)	DC50 [nM]
CNC(=O)COc1cc2cc(Nc3nc(N4CCN(CC5CCN(c6ccc7c(C8CCC(=O)NC8=O)nn(C)c7c6)CC5)CC4)ncc3Cl)cnc2n(C)c1=O (stereo not drawn) [Compound 107, 2-((6-((5-chloro-2-(4-((1-(3-(2,6-dioxopiperidin-3-yl)-1-methyl-1H-indazol-6-yl)piperidin-4-yl)methyl)piperazin-1-yl)pyrimidin-4-yl)amino)-1-methyl-2-oxo-1,2-dihydro-1,8-naphthyridin-3-yl)oxy)-N-methylacetamide]	+++ (30% ≤ Ymin < 50%)	< 10
CNC(=O)COc1cc2cc(Nc3nc(N4CCN(CC5CCN(c6cccc7c(N8CCC(=O)NC8=O)nn(C)c67)CC5)CC4)ncc3Cl)cnc2n(C(C)C)c1=O [Compound 109, 2-((6-((5-chloro-2-(4-((1-(3-(2,4-dioxotetrahydropyrimidin-1 (2H)-yl)-1-methyl-1H-indazol-7-yl)piperidin-4-yl)methyl)piperazin-1-yl)pyrimidin-4-yl)amino)-1-isopropyl-2-oxo-1,2-dihydro-1,8-naphthyridin-3-yl)oxy)-N-methylacetamide]	+++ (30% ≤ Ymin < 50%)	10 to 100
CNC(=O)COc1cc2cc(Nc3nc(N4CCCN(CC5CCN(c6cccc7c(C8CCC(=O)NC8=O)nn(C)c67)CC5)CC4)ncc3Cl)cnc2n(C)c1=O (stereo not drawn) [Compound 110, 2-((6-((5-chloro-2-(4-((1-(3-(2,6-dioxopiperidin-3-yl)-1-methyl-1H-indazol-7-yl)piperidin-4-yl)methyl)-1,4-diazepan-1-yl)pyrimidin-4-yl)amino)-1-methyl-2-oxo-1,2-dihydro-1,8-naphthyridin-3-yl)oxy)-N-methylacetamide]	+++ (30% ≤ Ymin < 50%)	10 to 100
CNC(=O)COc1cc2cc(Nc3nc(N4CCCN(CC5CCN(c6ccc7c(C8CCC(=O)NC8=O)nn(C)c7c6)CC5)CC4)ncc3Cl)cnc2n(C)c1=O (stereo not drawn) [Compound 111, 2-((6-((5-chloro-2-(4-((1-(3-(2,6-dioxopiperidin-3-yl)-1-methyl-1H-indazol-6-yl)piperidin-4-yl)methyl)-1,4-diazepan-1-yl)pyrimidin-4-yl)amino)-1-methyl-2-oxo-1,2-dihydro-1,8-naphthyridin-3-yl)oxy)-N-methylacetamide]	+++ (30% ≤ Ymin < 50%)	< 10
CNC(=O)COc1cc2cc(Nc3nc(N4CCC5(CCN(CC6CCN(c7cccc8c(C9CCC(=O)NC9=O)nn(C)c78)CC6)CC5)CC4)ncc3Cl)cnc2n(C)c1=O (stereo not drawn) [Compound 113, 2-((6-((5-chloro-2-(9-((1-(3-(2,6-dioxopiperidin-3-yl)-1-methyl-1H-indazol-7-yl)piperidin-4-yl)methyl)-3,9-diazaspiro[5.5]undecan-3-yl)pyrimidin-4-yl)amino)-1-methyl-2-oxo-1,2-dihydro-1,8-naphthyridin-3-yl)oxy)-N-methylacetamide]	++++ (Ymin < 30%)	10 to 100
CNC(=O)COc1cc2cc(Nc3nc(N4CCN(CCC5CCN(c6ccc7c(C8CCC(=O)NC8=O)nn(C)c7c6)CC5)CC4)ncc3Cl)cnc2n(C)c1=O (stereo not drawn) [Compound 114, 2-((6-((5-chloro-2-(4-(2-(1-(3-(2,6-dioxopiperidin-3-yl)-1-methyl-1H-indazol-6-yl)piperidin-4-yl)ethyl)piperazin-1-yl)pyrimidin-4-yl)amino)-1-methyl-2-oxo-1,2-dihydro-1,8-naphthyridin-3-yl)oxy)-N-methylacetamide]	+++ (30% ≤ Ymin < 50%)	< 10
CNC(=O)COc1cc2cc(Nc3nc(N4CCN(CCC5CCN(c6cccc7c(C8CCC(=O)NC8=O)nn(C)c67)CC5)CC4)ncc3Cl)cnc2n(C)c1=O (stereo not drawn) [Compound 115, 2-((6-((5-chloro-2-(4-(2-(1-(3-(2,6-dioxopiperidin-3-yl)-1-methyl-1H-indazol-7-yl)piperidin-4-yl)ethyl)piperazin-1-yl)pyrimidin-4-yl)amino)-1-methyl-2-oxo-1,2-dihydro-1,8-naphthyridin-3-yl)oxy)-N-methylacetamide]	+++ (30% ≤ Ymin < 50%)	< 10
CNC(=O)COc1cc2cc(Nc3nc(N4CC5COCC(C4)N5CC4CCN(c5cccc6c(C7CCC(=O)NC7=O)nn(C)c56)CC4)ncc3Cl)cnc2n(C)c1=O (stereo not drawn) [Compound 117, 2-((6-((5-chloro-2-(9-((1-(3-(2,6-dioxopiperidin-3-yl)-1-methyl-1H-indazol-7-yl)piperidin-4-yl)methyl)-3-oxa-7,9-diazabicyclo[3.3.1]nonan-7-yl)pyrimidin-4-yl)amino)-1-methyl-2-oxo-1,2-dihydro-1,8-naphthyridin-3-yl)oxy)-N-methylacetamide]	++++ (Ymin < 30%)	< 10
CNC(=O)COc1cc2cc(Nc3nc(N4CC5(CN(CC6CCN(c7ccc8c(C9CCC(=O)NC9=O)nn(C)c8c7)CC6)C5)C4)ncc3Cl)cnc2n(C)c1=O (stereo not drawn) [Compound 118, 2-((6-((5-chloro-2-(6-((1-(3-(2,6-dioxopiperidin-3-yl)-1-methyl-1H-indazol-6-yl)piperidin-4-yl)methyl)-2,6-diazaspiro[3.3]heptan-2-yl)pyrimidin-4-yl)amino)-1-methyl-2-oxo-1,2-dihydro-1,8-naphthyridin-3-yl)oxy)-N-methylacetamide]	++++ (Ymin < 30%)	< 10
CNC(=O)COc1cc2cc(Nc3nc(N4CC5(CN(CC6CCN(c7cccc8c(C9CCC(=O)NC9=O)nn(C)c78)CC6)C5)C4)ncc3Cl)cnc2n(C)c1=O (stereo not drawn) [Compound 119, 2-((6-((5-chloro-2-(6-((1-(3-(2,6-dioxopiperidin-3-yl)-1-methyl-1H-indazol-7-yl)piperidin-4-yl)methyl)-2,6-diazaspiro[3.3]heptan-2-yl)pyrimidin-4-yl)amino)-1-methyl-2-oxo-1,2-dihydro-1,8-naphthyridin-3-yl)oxy)-N-methylacetamide]	+++ (30% ≤ Ymin < 50%)	< 10
CNC(=O)COc1cc2cc(Nc3nc(N4CCC5(CC4)CN(CC4CCN(c6cccc7c(C8CCC(=O)NC8=O)nn(C)c67)CC4)C5)ncc3Cl)cnc2n(C)c1=O (stereo not drawn) [Compound 120, 2-((6-((5-chloro-2-(2-((1-(3-(2,6-dioxopiperidin-3-yl)-1-methyl-1H-indazol-7-yl)piperidin-4-yl)methyl)-2,7-diazaspiro[3.5]nonan-7-yl)pyrimidin-4-yl)amino)-1-methyl-2-oxo-1,2-dihydro-1,8-naphthyridin-3-yl)oxy)-N-methylacetamide]	++++ (Ymin < 30%)	< 10
CNC(=O)COc1cc2cc(Nc3nc(N4CCC5(CC4)CN(CC4CCN(c6ccc7c(C8CCC(=O)NC8=O)nn(C)c7c6)CC4)C5)ncc3Cl)cnc2n(C)c1=O (stereo not drawn) [Compound 121, 2-((6-((5-chloro-2-(2-((1-(3-(2,6-dioxopiperidin-3-yl)-1-methyl-1H-indazol-6-yl)piperidin-4-yl)methyl)-2,7-diazaspiro[3.5]nonan-7-yl)pyrimidin-4-yl)amino)-1-methyl-2-oxo-1,2-dihydro-1,8-naphthyridin-3-yl)oxy)-N-methylacetamide]	+++ (30% ≤ Ymin < 50%)	< 10
CNC(=O)COc1cc2cc(Nc3nc(N4CC[C@H](CNc5cccc6c(C7CCC(=O)NC7=O)nn(C)c56)C4)ncc3Cl)cnc2n(C)c1=O (stereo partly drawn) [Compound 122a, 2-((6-((5-chloro-2-((3R)-3-(((3-(2,6-dioxopiperidin-3-yl)-1-methyl-1H-indazol-7-yl)amino)methyl)pyrrolidin-1-yl)pyrimidin-4-yl)amino)-1-methyl-2-oxo-1,2-dihydro-1,8-naphthyridin-3-yl)oxy)-N-methylacetamide]	++ (50% ≤ Ymin < 70%)	10 to 100
CNC(=O)COc1cc2cc(Nc3nc(N4CC[C@@H](CNc5cccc6c(C7CCC(=O)NC7=O)nn(C)c56)C4)ncc3Cl)cnc2n(C)c1=O (stereo partly drawn) [Compound 122b, 2-((6-((5-chloro-2-((3S)-3-(((3-(2,6-dioxopiperidin-3-yl)-1-methyl-1H-indazol-7-yl)amino)methyl)pyrrolidin-1-yl)pyrimidin-4-yl)amino)-1-methyl-2-oxo-1,2-dihydro-1,8-naphthyridin-3-yl)oxy)-N-methylacetamide]	+++ (30% ≤ Ymin < 50%)	10 to 100
CNC(=O)COc1cc2cc(Nc3nc(N4CC[C@H](CNc5ccc6c(C7CCC(=O)NC7=O)nn(C)c6c5)C4)ncc3Cl)cnc2n(C)c1=O (stereo partly drawn) [Compound 123a, 2-((6-((5-chloro-2-((3R)-3-(((3-(2,6-dioxopiperidin-3-yl)-1-methyl-1H-indazol-6-yl)amino)methyl)pyrrolidin-1-yl)pyrimidin-4-yl)amino)-1-methyl-2-oxo-1,2-dihydro-1,8-naphthyridin-3-yl)oxy)-N-methylacetamide]	++ (50% ≤ Ymin < 70%)	< 10
